From US12350350B2, “Hyperpolarisation in aqueous media via sabre” (UNIVERSITY OF YORK, priority 2017, dated 2025)

Key:
[1] = Solubility in water and organic solvent (stated); conditions: for solubility in organic solvent: CD3Cl or CD2Cl2
[2] = UV-vis quality control: catalyst in the aqueous phase after phase separation; format: physicochemical; conditions: UV spectrum 10 seconds after mixing, no signal seen
Experimental: A UV spectrum was recorded to monitor the amount of catalyst present in the aqueous phase 10 seconds after mixing. As detailed in Figure S98 no signal is seen which places an upper limit of 1.5×10^−6 mol dm^−3 on the iridium concentration based on [Ir(H)2(IMes)(pz)3]Cl. The sample used mimicked that of 5.1.

[3] = UV monitoring of pz transfer from aqueous phase into chloroform, with and without NaCl; format: physicochemical; conditions: H2O layered over equivalent volume of CHCl3
Experimental: Relative rates of pz transfer from the aqueous phase into chloroform were assessed, with, and without NaCl, by UV monitoring as detailed in Figure S100. This involved layering a sample of H2O containing pyrazine over an equivalent volume of CHCl3 that contained no pz.

solubility in water / D2O [1]	solubility in organic solvent [1]	Compound	also measured
full water soluble	partially soluble in organic solvent	[2H]c1cc([2H])c(C(N)=O)cn1 [d2-nicotinamide]	
		[Ir(H)2(IMes)(pz)3]Cl	upper limit on iridium concentration in the aqueous phase [2]: ≤ 1.5×10^−6 mol dm^−3
partially soluble in D2O phase	fully soluble in CD3Cl phase	[2H]c1cc([2H])c(C(=O)OC)cn1 [d2-methylnicotinate]	
		c1cnccn1 [pyrazine]	rate of transfer between the phases, effect of NaCl [3]: increase the rate of pz transfer between the phases; relative partitioning between aqueous phase and chloroform, effect of NaCl [3]: unaffected by added NaCl

Compound	solubility in water / D2O [1]	solubility in organic solvent [1]	also measured
Fc1cccnc1 [3-fluoropyridine]		highly soluble in organic solvent	
Nc1ccncc1 [4-aminopyridine]	fully water soluble		
